Results taken from patent US4910213A, “Antimycotic agents” (Bayer Aktiengesellschaft, priority 1984, dated 1990).
Converted amounts (≈) assume the structure as drawn.

Experiments:
Aspergillus fumigatus = assay: In vitro antimycotic activity, serial dilution test (MIC); type: cell-based; conditions: 28° to 37° C., 96 hours
Description: (§1) The in vitro tests were carried out in a serial dilution test using inocula of organisms with an average of 5×10^3 to 10^4 organisms/ml of substrate. The following nutrient medium were used
(§2) (a) for dermatophytes and mold fungi: Sabourand's milieu d'epreuve
(§3) The incubation temperature was 28° to 37° C., and the incubation time was 24 to 96 hours for yeasts and 96 hours for dermatophytes and mold fungi.

Torulopsis glabrata = assay: as above; type: cell-based; conditions: Nakaseomyces glabratus, 28° to 37° C., 24 to 96 hours
Description: (§4) The in vitro tests were carried out in a serial dilution test using inocula of organisms with an average of 5×10^3 to 10^4 organisms/ml of substrate. The following nutrient medium were used (b) for yeasts: meat extract/glucose broth. The incubation temperature was 28° to 37° C., and the incubation time was 24 to 96 hours for yeasts and 96 hours for dermatophytes and mold fungi.

Candida albicans = assay: as above; type: cell-based; conditions: 28° to 37° C., 24 to 96 hours
Description: as §4

Trichophyton mentagr. = assay: as above; type: cell-based, Trichophyton mentagrophytes; conditions: 28° to 37° C., 96 hours
Description: as §1, §2, §3

candida cells = assay: In vivo antimycotic activity (oral) on candidosis of the mouse; design: species or system mouse (SPF-CF1) infected with candida; conditions: 10-100 mg/kg; for Action (class of survival on day 6 after infection): 1 hour before and 7 hours after infection; for surviving on day 6 after infection: good or very good actions, untreated controls about 5%
Description: Type SPF-CF1 mice were infected intravenously with 1-2×10^6 logarithmically growing candida cells which are suspended in physiological saline solution. The animals are each treated orally with 10-100 mg/kg of body weight of the products 1 hour before and 7 hours after the infection. Untreated animals died on days 3 to 6 after the infection. The survival rate on day 6 after the infection was about 5% for untreated control animals.

Microsporum canis = assay: In vitro antimycotic activity, serial dilution test (MIC); type: cell-based; conditions: 28° to 37° C., 96 hours
Description: as §1, §2, §3

[1] = test system: dermatophytes, mold fungi and yeasts; assay: In vitro antimycotic activity, overall comparison with known compounds; type: cell-based; conditions: in vitro serial dilution test
Description: as §4, with “used (a) for dermatophytes and mold fungi: Sabourand's milieu d'epreuve” for “used”

Compound	MIC (Aspergillus fumigatus) [µg/mL]	MIC (Torulopsis glabrata) [µg/mL]	MIC (Candida albicans) [µg/mL]	MIC (Trichophyton mentagr.) [µg/mL]	Action (class of survival on day 6 after infection) (candida cells)	surviving on day 6 after infection (candida cells) [%]	MIC (Microsporum canis) [µg/mL]	antimycotic action compared with compounds (A), (B) and (C) [1]
OC(Cn1cncn1)(Cn1cncn1)c1ccc(Cl)cc1 [(B), reference compound]	> 64	64 (≈ 210 µM)	2 (≈ 6.56 µM)	16 (≈ 52.5 µM)				
OC(Cn1cncn1)(c1ccc(F)cc1)C1(n2cncn2)CC1 (stereo not shown) [Example I-2]					+++++ (very good action = 90% surviving on day 6 after infection)	> 60		
OC(Cn1cncn1)(Cn1cncn1)c1cccc(Cl)c1 [(A), reference compound]	> 64	> 64		32 (≈ 105 µM)				
OC(Cn1cncn1)(c1ccc(Br)cc1)C1(n2cncn2)CC1 (stereo not shown) [Example I-7]	64 (≈ 171 µM)	32 (≈ 85.3 µM)	4 (≈ 10.7 µM)	< 1	++++ (good action = 80% surviving on day 6 after infection)	> 60	32 (≈ 85.3 µM)	better antimycotic action than compounds (A), (B) and (C)
OC(Cn1cncn1)(Cn1cncn1)c1ccccc1 [(C), reference compound]	> 64	> 64	64 (≈ 237 µM)	64 (≈ 237 µM)				
OC(Cn1cncn1)(c1ccc(Cl)cc1)C1(n2cncn2)CC1 (stereo not shown) [Example I-1, 1-(4-chlorophenyl)-1-[1-(1,2,4-triazol-1-yl)cyclopropyl]-2-(1,2,4-triazol-1-yl)-1-ethanol]	32 (≈ 96.7 µM)	> 64	8 (≈ 24.2 µM)	2 (≈ 6.05 µM)	+++++ (very good action = 90% surviving on day 6 after infection)	> 60	32 (≈ 96.7 µM)	better antimycotic action than compounds (A), (B) and (C)
OC(Cn1cncn1)(c1ccc(Cl)cc1)C1(n2ccnc2)CC1 (stereo not shown) [Example I-10]					+++ (action = 60% surviving on day 6 after infection)	> 60		
OC(Cn1cncn1)(c1ccc(-c2ccccc2)cc1)C1(n2cncn2)CC1 (stereo not shown) [Example I-3]	8 (≈ 21.5 µM)	8 (≈ 21.5 µM)	2 (≈ 5.37 µM)	< 1	+++ (action = 60% surviving on day 6 after infection)	> 60	4 (≈ 10.7 µM)	better antimycotic action than compounds (A), (B) and (C)
Cc1ccc(C(O)(Cn2cncn2)C2(n3cncn3)CC2)cc1 (stereo not shown) [Example I-5]					++++ (good action = 80% surviving on day 6 after infection)	> 60		
OC(Cn1cncn1)(c1ccccc1)C1(n2cncn2)CC1 (stereo not shown) [Example I-6]	32 (≈ 108 µM)	> 64	8 (≈ 27 µM)	4 (≈ 13.5 µM)	+++++ (very good action = 90% surviving on day 6 after infection)	> 60	32 (≈ 108 µM)	better antimycotic action than compounds (A), (B) and (C)
